Source: US20080279961A1, “TELOMERE TARGETING AGENTS AS STEM CELLS DIRECTED TREATMENTS” (priority 2007, published 2008)
Entries after “also recorded” stand apart in the source; their conditions may differ.

Key:
R1 prostate cancer cells = assay: side population analysis; assay type: cell-based
Source text: In one embodiment of the invention, cancer stem cells have shorter telomeres than other cancer cells (FIG. 7). Side population analysis was done to distinguish between cancer stem cells in R1 prostate cancer cells and […]. A primitive CD34^low/neg stem cell population has been defined in normal bone marrow, which has the unique capacity to efflux lipophilic dyes such as Hoechst 33342 as a result of high levels of expression of P-glycoprotein (MDRa/ABCB1) transporter and BCRP (breast cancer resistance protein, ABCG2). […] R1 is the parental prostate cancer cell line with a SP of 0.36% of cells of the total population (100%). […] Subclones of the R1 chemosensitive prostate cancer cell line that are resistant to the clinically used cytotoxic agents mitoxantrone and docetaxel, show a much expanded SP of 45% and 83% of cells respectively. In fact docetaxel resistant R1 cells are almost all stem cell like cells.

[1] = tolerability in xenograft studies (body weight, deaths, MTD)
Procedure: For the first in vivo experiment, tumor fragments (5×5 mm) from untreated donor animals were implanted subcutaneously into both flanks of recipient mice. Treatment was initiated 6 days after transplantation (=day 0, median tumor volume of ˜70 mm^3). Animals were randomized into groups following Lindner's randomization tables and treated by oral gavage with 5 mg/kg/d RHPS4 or vehicle (phosphate buffered saline) respectively (n=5-8 animals per group). […] Drug administration was repeated twice weekly for 8 times (Q3dx8) after randomization. Tumor growth was followed twice weekly by serial caliper measurement, body weights were recorded, and tumor volumes were calculated using the standard formula (length×width^2)/2, where length is the largest dimension and width the smallest dimension perpendicular to the length (Alley et al., 2004; Geran et al., 1972). The median relative tumor volume was plotted against time. Relative tumor volumes were calculated for each single tumor by dividing the tumor volume on day X by that on day 0 (time of randomization). Growth curves were analyzed in terms of tumor inhibition (treated/control, T/C, calculated as median tumor weight of treated divided by median tumor weight of control animals times 100). Statistical data analysis was done using non-parametrical Wilcoxon Mann-Whitney statistics. Median relative tumor volumes of each treatment group were compared with those of the vehicle control groups. P values less than 0.05 were considered statistically significant. SPSS 2000, SYSTAT version 10 software was used.
To conduct combination treatment with Paclitaxel, after 4 serial propagations of RHPS4 treated tumor tissue in nude mice (FIG. 1), RHPS4 was combined with Paclitaxel. Single agent Paclitaxel was given at 20 mg/kg i.v. on days 1 and 15. In combination with RHPS4 (given at 5 mg/kg p.o. twice weekly), only a single dose of Paclitaxel (20 mg/kg i.v.) was administered on day 1. Tumor growth parameters and body weight were assessed as described above.

UXF1138L xenografts [2] = assay: tumor growth inhibition of subcutaneous xenografts; assay type: in vivo, nude mice
UXF1138L xenografts [3] = settings: mouse, in vivo; cited from earlier work

COc1ccc2c3c([nH]c2c1)[C@H](CC(C)C)N1C(=O)[C@H](CCC(=O)OC(C)(C)C)NC(=O)[C@@H]1C3 [Ko143]
effect on side population (SP) (R1 prostate cancer cells): abolishes the SP

CC(=O)O[C@H]1C(=O)[C@@]2(C)[C@H]([C@H](OC(=O)c3ccccc3)[C@]3(O)C[C@H](OC(=O)[C@H](O)[C@@H](NC(=O)c4ccccc4)c4ccccc4)C(C)=C1C3(C)C)[C@]1(OC(C)=O)CO[C@@H]1C[C@@H]2O [Paclitaxel, reference compound]
Deaths [n/n], drug related death per mice per group ([1]; Passage #4): 0/6
BWC, maximal median body weight change ([1]; mouse, in vivo): +6%
opt. Test/Control [%] (UXF1138L xenografts [2]; Passage #4, RHPS4 5 mg/kg p.o. twice weekly, Paclitaxel 20 mg/kg i.v.): 8%
CR, complete remission (UXF1138L xenografts [2]; Passage #4, tumors per group): 2/12
P, progression (UXF1138L xenografts [2]; Passage #4, tumors per group): 3/12
PR, partial regression (UXF1138L xenografts [2]; Passage #4, tumors per group): 7/12
antitumor response in words (UXF1138L xenografts [2]; Passage #4 UXF1138L xenografts): has single agent activity; also recorded: transient remissions; also recorded: Minor remissions

COc1cccc2c1C(=O)c1c(O)c3c(c(O)c1C2=O)C[C@@](O)(C(=O)CO)C[C@@H]3O[C@H]1C[C@H](N)[C@H](O)[C@H](C)O1 [doxorubicin]
response of UXF1138L xenograft to standard chemotherapy (UXF1138L xenografts [3]): resistant

O=C1c2c(O)ccc(O)c2C(=O)c2c(NCCNCCO)ccc(NCCNCCO)c21 [mitoxantrone]
response of UXF1138L xenograft to standard chemotherapy (UXF1138L xenografts [3]): resistant
